Assays:
Type in all cases: cell-based, mouse
soleus muscles [1] = assay: Basal 2-DG uptake (no insulin) in isolated soleus muscles; conditions: for Basal rate of 2-DG uptake, Soleus: MDL 300 μmol 1^−1, TBQ 500 nmol 1^−1, mean ± SEM (n)
Excerpt: (§1) Adult male mice (NMRI strain) were housed at room temperature and fed ad libitum. Animals were killed by rapid neck disarticulation and muscles removed. Extensor digitorum longus (EDL; mainly fast-twitch fibers)) and soleus (mainly slow-twitch fibers) muscles were used for measurements of 2-deoxyglucose (2-DG) uptake. Flexor digitorum brevis (FDB, mainly fast-twitch fibers) muscles were used in single fiber experiments. All procedures were approved by the local ethics committee.
(§2) 2-DG uptake was measured essentially as described elsewhere (Shashkin et al. (1995) J Biol Chem 270:25613-25618; Le Marchand-Brustel et al. (1979) J Clin Invest 64:1505-1515). Briefly, muscles were incubated at 35° C. in Krebs bicarbonate buffer containing 2 mmol 1^−1 pyruvate (no glucose) ±an antagonist of SMCE, either 2-APB, a relatively specific inhibitor of SMCE that appears to act directly on SMCE channels (Braun et al. (2001) J Biol Chem 276:1063-1070; Broad et al. (2001) J Biol Chem 276:15945-15952), or MDL, another inhibitor of SMCE with different modes of action as compared to 2-APB (van Rossum et al. (2000) J Biol Chem 275:28562-28568). In other experiments muscles were incubated in 2,5-di(tert-butyl)-1,4-benzohydroquinone (TBQ), an inhibitor of SR Ca^2+ uptake (Westerblad et al. (1994) J Physiol 474:291-301). In some experiments insulin was added (10 milliunits ml^−1) after the initial 30 min incubation period. After an additional 30 min, 2-DG (1 mmol 1^−1; 1 mCi mmol^−1) and inulin (0.2 μCi per ml medium) were added. Muscles were blotted and frozen in liquid nitrogen 20 min after addition of 2-DG. Muscles were then weighed, digested in NaOH at 70° C., cooled and centrifuged, and aliquots of the supernatants were added to scintillation cocktail and counted for ^3H (2-DG) and ^14C (inulin).

skeletal muscle = assay: Contractile function (tetanic force, relaxation) during drug exposure
Experimental: To ensure that this inhibition was not caused by a generalized, unspecific inhibitory effect of the drug, contractile function was tested during exposure to 2-APB.

soleus muscles [2] = assay: Insulin-mediated 2-deoxyglucose (2-DG) uptake in isolated soleus muscles; conditions: insulin 10 milliunits ml^−1
Excerpt: as §1, §2

EDL muscles [3] = assay: Basal 2-DG uptake (no insulin) in isolated EDL muscles; conditions: for Basal rate of 2-DG uptake, EDL: 2-APB 0.1 mmol 1^−1, MDL 300 μmol 1^−1, TBQ 500 nmol 1^−1, mean ± SEM (n)
Excerpt: as §1, §2

EDL muscles [4] = assay: Insulin-mediated 2-deoxyglucose (2-DG) uptake in isolated EDL muscles; conditions: insulin 10 milliunits ml^−1
Excerpt: as §1, §2
In some experiments on EDL muscles, 2-DG glucose uptake was measured after 2-APB removal in the continued presence of insulin. After the initial 30 min incubation period, insulin (10 milliunits ml^−1) was added and remained in the solution for the rest of the experiment. After an additional 30 min, 2-APB (100 μM) was added. […] Control muscles were treated in the same way except that 2-APB was never added.

[5] = system: store-mediated Ca^2+ entry (SMCE); assay: Rate of Mn2+ quenching of fura-2 fluorescence in single FDB muscle fibers (indirect measure of SMCE)
Excerpt: as §1
(§3) Experiments on single FDB muscle fibers were performed at 24° C. The isolated fiber was mounted in a stimulation chamber and continuously superfused by standard Tyrode solution (Lännergren et al. (1987) J Physiol 390:285-293). The free myoplasmic [Ca^2+] ([Ca^2+]i) was measured with the fluorescent Ca^2+ indicator indo-1 (Andrade et al. (1998) J Physiol 509:565-575). An indirect measure of SMCE was obtained by measuring the rate of Mn^2+ entry and quenching of the fluorescence intensity of fura-2 (Hopfet al. (1996) J Biol Chem 271:22358-22367). MnCl2 (100 μmol 1^−1) was added to the bath solution and the fura-2 injected muscle fiber was excited at 360±5 nm (the isosbestic wavelength of fiira-2 under our experimental conditions) while measuring the fluorescence light emitted at 495±5 nm. The rate of Mn^2+ quenching was measured during periods where the rate of decrease of the fluorescent light was stable, i.e. ignoring transient changes induced by changes of the bath solution. Measurements were not performed until 2 min after application of insulin, thus allowing time for insulin to act.

single FDB muscle fibers = assay: Free myoplasmic [Ca2+]i measured with indo-1 in single FDB muscle fibers; conditions: global [Ca^2+]i, 75±13 before, n=4
Excerpt: as §1
as §3, with “The isolated fiber was mounted in a stimulation chamber and continuously superfused by standard Tyrode solution (Lännergren et al. (1987) J Physiol 390:285-293). The free myoplasmic [Ca^2+]” left out, “Measurements were not performed until 2 min after application of insulin, thus allowing time for insulin to act.” left out

Row | Compound | Effect on basal 2-DG uptake, soleus (in words) (soleus muscles [1]) | Basal rate of 2-DG uptake, Soleus (soleus muscles [1]) | Increase of tetanic force (skeletal muscle; 2-APB 100 μmol 1^−1, 30 min (n=5), TBQ 500 nmol 1^−1 (n=4)) | Relaxation speed (in words) (skeletal muscle; 2-APB 100 μmol 1^−1, 30 min, TBQ 500 nmol 1^−1) | Insulin-mediated 2-DG uptake, soleus (soleus muscles [2]; 100 nmol 1^−1 TBQ, n=6) | Insulin-mediated 2-DG uptake, soleus (soleus muscles [2]; 500 nmol 1^−1 TBQ, n=4) | Effect on insulin-mediated 2-DG uptake, soleus (in words) (soleus muscles [2]) | Effect on basal 2-DG uptake, EDL (in words) (EDL muscles [3]) | Basal rate of 2-DG uptake, EDL (EDL muscles [3]) | Insulin-mediated 2-DG uptake, EDL (EDL muscles [4]; 100 nmol 1^−1 TBQ, n=6) | Insulin-mediated 2-DG uptake, EDL (EDL muscles [4]; 500 nmol 1^−1 TBQ, n=4) | Effect on insulin-mediated 2-DG uptake, EDL (in words) (EDL muscles [4]) | Reversibility of the force reduction on washout (skeletal muscle; 100 μmol 1^−1 MDL) | Reduction of tetanic force (skeletal muscle; 100 μmol 1^−1 MDL, 30 min of exposure, n=4) | Increase in the rate of Mn^2+ quenching on addition of insulin ([5]; 0 mmol 1^−1 glucose, n=5) | Insulin-induced change of the rate of Mn^2+ quenching (in words) ([5]; 5.5 mmol 1^−1 glucose, mean data, n=6) | Recovery of the 2-APB-induced decrease of quenching rate by insulin ([5]; insulin 10 mU ml^−1 in continued presence of 2-APB 100 μmol 1^−1) | [Ca^2+]i after application of insulin (single FDB muscle fibers)
1 | CC(C)(C)c1cc(O)c(C(C)(C)C)cc1O [TBQ, 2,5-di(tert-butyl)-1,4-benzohydroquinone] | no significant effect | 63 ± 5 (4) μmol 1^−1 min^−1 | 4±2% | slight slowing of relaxation | 150±7 μmol 1^−1 min^−1 | 179±8 μmol 1^−1 min^−1 | no effect | no significant effect | 37 ± 6 (4) μmol 1^−1 min^−1 | 93±5 μmol 1^−1 min^−1 | 103±4 μmol 1^−1 min^−1 | no effect | – | – | – | – | – | –
2 | c1ccc([C@H]2CCC[C@H]2NC2=NCCCCCCCCCCC2)cc1 (relative stereo) [MDL, cis-N-(2-phenylcyclopentyl)azacyclotridec-1-en-2-amine] | not significantly affected | 42 ± 4 (4) μmol 1^−1 min^−1 | – | – | – | – | decreased insulin-mediated 2-DG uptake in a dose-dependent manner | not significantly affected | 42 ± 3 (4) μmol 1^−1 min^−1 | – | – | decreased insulin-mediated 2-DG uptake in a dose-dependent manner | not reversed on washout | 22±2% | – | – | – | –
3 | insulin | – | – | – | – | – | – | – | – | – | – | – | – | – | – | about 10% | no significant insulin-induced change | about half | 74±13 nmol 1^−1

Source: US20040092456A1, “Methods for identifying glucose uptake modulators” (priority 2002, published 2004)
